Holding throughout (type): cell-based, human
One experiment relates to SP cells. Description: Block of mitosis, morphology by microscopy. Also on record: key to Block of Mitosis: +Block of mitosis was observed; −no mitotic blocking. As to the method: (§1) All cell lines, with the exception of human SP cells, a biphenotypic leukemic cell line (reference 10 & 11), were obtained from the American Tissue Culture Collection (Rockville, Md.) and were cultured under conditions recommended by the vendor. EL4 murine leukemia lymphoma (as suspension) and B16 mouse melanoma (as monolayer) cell lines were cultivated in RPMI-1640 medium supplemented with 10% fetal bovine serum (FBS), penicillin (250 μ/ml) and streptomycin (250 μml); MOT, a non-tumor proliferative myocardial cell line from rat and NIH 3T3, a non-malignant and proliferative fibroblast cell line from mouse were both cultured as monolayers in Dulbecco's Modified Eagle's Medium with 10% heat inactivated calf serum. CEM, a human acute T-cell leukemic cell line, was cultured as a suspension in Iscove's Dulbecco's Medium with 10% heat inactivated fetal calf serum and antibiotics. PC-3 cells, a human prostate cancer line, was cultured as monolayers in RPMI-1640 with 10% FBS. SP cells were cultured in Minimum Eagle's Medium plus 10% FBS. Human peripheral blood lymphocytes (PBL) were isolated from whole blood of healthy individuals by Ficoll-Hypaque gradient method. Isolated PBL were maintained in RPMI-1640 in the presence of 10% homologous plasma at 37° C. All cells were incubated at 37° C. in 5% C02. Cells in exponential growth were used.
(§2) Cell samples on slides were prepared by a Cytospin centrifuge (Shandon Southern Products Ltd, England) at 700 g for 5 min. The slides were air dried, fixed in methanol and stained with Giemsa (Harleco, N.J.) at room temperature for 15 min. Alterations of nuclei, membranes and morphological features were observed by light microscopy. Cells in mitotic phase were recognized by the appearance of their chromosomes dispersed in the cytoplasm, and by the disappearance of nuclear membrane. Apoptotic-cells were identified using previously defined criteria, i.e., shrinkage in cell size, chromatin condensation and fragmentation of the nucleus into discrete masses (references 2 & 3). Necrotic cells were differentiated from apoptotic cells by observing swollen cytoplasm and the disappearance of cell membrane prior to the destruction of the nucleus.

Another experiment has as its system PC-3 cells. Description: Block of mitosis, morphology by microscopy. Set-up: key to Block of Mitosis: +Block of mitosis was observed; −no mitotic blocking. The method, then: as §1, §2
The test system of experiment [1] is mitotic spindles (β-tubulin) in CEM cells. Description: Immunofluorescent detection of mitotic spindles. The note with it: for Antimicrotubule: CEM cells, 0.025 μg/ml, immunofluorescent staining. As to the method:
[…] After incubation, cells were washed twice in PBS. Cell pellets were resuspended in drug-free medium and incubated for 48 hr at 37° C. Cell viability, morphology, mitotic spindles, cell cycle distribution and apoptosis were determined 24 hr and 48 hr post pulse exposure.
CEM cells incubated in the absence or presence of 3-BAABU were collected and centrifuged in a Cytospin at 700 g for 5 min. The slides were air dried and fixed with methanol for 20 min at −20° C. The slides were incubated in PBS containing. 1% BSA at 37° C. for 30 min. After washing with PBS for 3 min, cells on the slides were covered with 30 μl anti-human β-tubulin monoclonal antibody (4 μg/ml) (Accurate Antibody, Westbury, N.Y.) and placed in a humid chamber at room temperature for 60 min. The slides were washed three times for 3 min each in PBS followed by staining with 10 μl FITC labeled goat anti-mouse antibody (Coulter, Hialeah, Fla.) in a humid chamber at room temperature for 60 min. After washing in, PBS, the immunofluorescent stained cells were visualized under a fluorescence microscope (Model MC 63, Zeiss, Germany).

In the case of `NC(=O)NC(=O)c1cccc(NC(=O)CBr)c1` [Compound 8, 3-Bromoacetoamido, benzoylurea], the morphologic effect entry in the experiment on SP cells (SP human lymphoid leukemic cells, 0.025 μg/ml, 24 hr at 37° C.) was “induced mitotic arrest”; in the experiment on PC-3 cells (PC-3 human prostate cancer cells, 0.1 μg/ml, 24 hr at 37° C.), “induced mitotic arrest”. Also, the “Block of Mitosis” value with SP cells (SP, Human MDS, 37° C. for 48 hr, arrest = mitotic cells >50% vs controls) is “+”; with PC-3 cells (PC-3, Human Prostate Cancer, 37° C. for 48 hr), “+”. In addition, the Antimicrotubule result in experiment [1] (Continuous Exposure (24 hr; 48 hr in footnote)) and in experiment [1] (Pulse Exposure (1 hr)) was “++++ (++++: >75% cells were affected)” each time. In addition, the “formation of mitotic spindles, immunofluorescent staining for β-tubulin” value in experiment [1] (mitotic CEM cells arrested by the compound) is “none of them showed positive staining for mitotic spindles or astral microtubules”.

The record behind these values is patent publication US6590123B2, “Aminobenzoic acid derivatives having anti-tumorigenic activity, methods of making and using the same” (Mount Sinai School of Medicine of New York University, priority 1998, dated 2003).
